# From patent publication US20130059814A1, “ANTI-INFLAMMATORY DERMATOLOGICAL COMPOSITION COMPRISING CORTICOSTEROIDS AND HYALURONATE FRAGMENTS, AND USES THEREOF” (priority 2007, published 2013)
# How the values were obtained:
# C57B1/6 mice = experiment: Inflammation induced by TPA in the ear of mice: epidermis and dermis thickness, dermal cellularity; assay type: in vivo; settings: 0.005% TPA on ears, PC 0.05%, HAF 1%, 4 days
# Procedure: (§1) Skin inflammation was induced by topical application of 0.005% TPA (12-o-tetradecanoylphorbol-13-acetate) in acetone, on the ears of C57B1/6 mice; the control animals received the same volume of acetone. Clobetasol propionate (0.05%) and the HAFs (1%) were dissolved in 100 μL of carrier, and were applied together with TPA for 4 days; the control animals received the same volume of carrier. The inflammation was determined by measuring the thickness of the ears with a clip and the dermis-epidermis thickness in optical microscopy and by assaying myeloperoxidase activity. The animals were sacrificed 24 hrs after the last application. 6 mm biopsies were sampled, frozen in liquid nitrogen and then stored at −70° C. until the day of the analysis. The remainder of the tissue was set with formol and analyzed by immunohistology.
# The epidermal inflammation induced by the application of Phorbol TPA ester was measured, after application of TPA, and then after treatment with clobetasol propionate, and after treatment with the composition comprising clobetasol propionate and HAFs. Ten measurements were made per mouse. The anti-inflammation index is the ratio between the control treated with TPA, and with the composition TPA+PC or TPA+PC+HAF.
# The dermal inflammation induced by applying Phorbol TPA ester was measured, after application of TPA, and then after treatment with clobetasol propionate and after treatment with the composition comprising clobetasol propionate and HAFs. Ten measurements were made per mouse, the results are grouped in the Table 6 below. The anti-inflammation index in the ratio between the control treated with TPA, and with the association TPA+PC or TPA+PC+HAF.
# Dermal cellularity induced by applying Phorbol TPA ester was measured, after application of TPA, and then after treatment with clobetasol propionate, and after treatment with the composition comprising clobetasol propionate and HAFs. Ten measurements were made per mouse. The anti-inflammation index is the ratio between the control treated with TPA, and with the association TPA+PC or TPA+PC+HAF.
# myeloperoxidase = experiment: Myeloperoxidase activity in supernatant of homogenates of TPA-treated ear biopsies; assay type: in vivo, mice; settings: 0.005% TPA on ears, PC 0.05%, HAF 1%, 4 days
# Procedure: as §1
# The myeloperoxidase activity was determined in the supernatant of the homogenates of the ear biopsies. […] The enzymatic activity of myeloperoxidase was determined according to the method of Bradley et al., modified for using the photometric plate reader. […] The optical density was measured at 450 nm. […] The expression of CD44, CD44v3 and pro-HB-EGF was analyzed by immunohistochemistry and by Western blotting according to methods already described (PLoS Med 3 (12): e493, 2006). […]
# Hairless SKH mice = experiment: Skin atrophy protocol: dermis-epidermis thickness after topical corticosteroid with or without HA fragments; assay type: in vivo
# From the text: Hairless SKH mice received twice daily for 5 days a topical treatment on the back with a steroid (0.05% clobetasol propionate or 0.1% desonide) with or without HA fragments (with a molecular weight comprised between 20 and 500 kDa, and obtained by the method including the treatment steps with ultrasound and filtering as described above). These fragments will be designated in the following examples by HAF. Dermal and epidermal atrophy and the concentration of skin hyaluronate were respectively determined by measuring the dermis-epidermis thickness in optical microscopy and by ELISA.
# The epidermal and cutaneous (distance between the granular layer and the sweating glands) thicknesses were measured by an ocular micrometer. Ten measurements were made per mouse. The prevention index is the ratio between the control treated with clobetasol propionate (PC) alone and the PC +HAF composition.
# The epidermal thickness was measured with an ocular micrometer after treatment with different desonide concentrations. Ten measurements were made per mouse. The prevention index is the ratio, at a determined corticosteroid concentration, between the control treated by the corticosteroid alone and by the corticosteroid composition+HAF.
# The epidermal thickness was measured with an ocular micrometer after treatment with different corticosteroids. Ten measurements were made per mouse. The prevention index is the ratio between the control treated by the corticosteroid alone and the corresponding composition comprising the HAFs.
# The non-treated hyaluronic acid, the fragments obtained by action of hyaluronidase, as well as the HAFs were compared for their preventive effects. The epidermal thickness was measured with an ocular micrometer. Ten measurements were made per mouse. The prevention index is the ratio between the control treated with the corticosteroid alone and with each corticosteroid composition+HAF.
# hairless SKH1 mice = settings: JEADV 19: 124, 2005; cited from earlier work
# [1] = Table 3: corticosteroid 0.05%, with or without HAF
smiles,measurement,setting,value
"CCCCCCCCCCCCCC(=O)O[C@@H]1[C@@H](C)[C@@]2(O)[C@@H](C=C(CO)C[C@]3(O)C(=O)C(C)=C[C@@H]23)[C@@H]2C(C)(C)[C@]12OC(C)=O [TPA, 12-o-tetradecanoylphorbol-13-acetate]",Dermal cellularity % of control,C57B1/6 mice,789 % of control
same,Dermis inflammation % of non-treated control,C57B1/6 mice,226 % of non-treated control
same,Epidermis inflammation % of control,C57B1/6 mice,438 % of control
same,myeloperoxidase % of control,myeloperoxidase,3273 % of control
"CCC(=O)O[C@]1(C(=O)CCl)[C@@H](C)C[C@H]2[C@@H]3CCC4=CC(=O)C=C[C@]4(C)[C@@]3(F)[C@@H](O)C[C@@]21C [PC, clobetasol propionate]",Cutaneous thickness % of non-treated control,"Hairless SKH mice; PC 0.05%, HAF 1% where present, distance between granular layer and sweating glands",56 % of non-treated control
same,Epidermal thickness % of non-treated control,"Hairless SKH mice; PC 0.05%, HAF 1% where present, topical on the back twice daily for 5 days",33 % of non-treated control
same,Epidermal thickness % of non-treated control,Hairless SKH mice; [1],28 % of non-treated control
same,Epidermal thickness % of non-treated control,Hairless SKH mice; Table 4: 0.05% Clobetasol alone or with HA form,28 % of non-treated control
C[C@H]1C[C@H]2[C@@H]3CCC4=CC(=O)C=C[C@]4(C)[C@@]3(F)[C@@H](O)C[C@]2(C)[C@@]1(O)C(=O)CO [Betamethasone],Epidermal thickness % of non-treated control,Hairless SKH mice; [1],53 % of non-treated control
CC1=C(/C=C/C(C)=C/C=C/C(C)=C/C=O)C(C)(C)CCC1 [retinaldehyde],Prevention of epidermal atrophy induced by clobetasol propionate,hairless SKH1 mice,"prevents epidermal atrophy induced by a corticosteroid, clobetasol propionate"
"CC1(C)O[C@@H]2C[C@H]3[C@@H]4CCC5=CC(=O)C=C[C@]5(C)[C@H]4[C@@H](O)C[C@]3(C)[C@]2(C(=O)CO)O1 [Desonide, desonide]",Epidermal thickness % of non-treated control,"Hairless SKH mice; Desonide 0.025%, HAF 0 or 1%",72 % of non-treated control
same,Epidermal thickness % of non-treated control,"Hairless SKH mice; Desonide 0.05%, HAF 0 or 1%",62 % of non-treated control
same,Epidermal thickness % of non-treated control,"Hairless SKH mice; Desonide 0.075%, HAF 0",55 % of non-treated control
same,Epidermal thickness % of non-treated control,"Hairless SKH mice; Desonide 0.1%, HAF 0 or 1%",46 % of non-treated control
same,Epidermal thickness % of non-treated control,Hairless SKH mice; [1],62 % of non-treated control
same,Epidermal thickness % of non-treated control,Hairless SKH mice; Table 4: Desonide 0.1% alone or with HA form,46 % of non-treated control
